Reference: article PMC9848351, “Discovery of new pyridine-quinoline hybrids as competitive and non-competitive PIM-1 kinase inhibitors with apoptosis induction and caspase 3/7 activation capabilities” (Journal of Enzyme Inhibition and Medicinal Chemistry, 2023)

What was measured:
[1] = tested on: normal human lung fibroblast Wi-38 cell line; assay: MTT cytotoxicity on normal cells; assay type: cell-based; conditions: Wi-38, 72 h, MTT, mean ± SEM; for EC50: Homo sapiens, 50% cell viability; for Wi-38 EC100: safe dose, 100% cell viability
Description: Cytotoxicity of the tested compounds was evaluated using normal human lung fibroblast Wi-38 cell line compared to currently used anticancer drug (doxorubicin) using MTT method was used for assaying cell viability[26] (Supplementary Page S55).
Cytotoxicity test is one of the biological evaluations and screening tests that use human normal and cancer cells in-vitro to observe the effect of the studied compounds on their growth using MTT-based cytotoxicity. Microculture MTT method[26] was used to determine cytotoxic activity of the newly synthesised compounds against normal human lung fibroblast (Wi-38) using doxorubicin (Dox) as standard anticancer drug. The highest IC50 and EC100 values illustrate that the compounds were safe on the proliferation of normal human cells. […]. page 47:
(§1) Cytotoxicity of the tested compounds was evaluated using normal human lung fibroblast Wi-38 cell line compared to currently used anticancer drug (doxorubicin).
Firstly, Wi-38 cell line was subcultured in DMEM medium-contained 10% fetal bovine serum (FBS), then, seeded as 5x10^3 cells per well in 96-well cell culture plate and incubated at 37 °C in 5% CO 2 incubator. Serial concentrations of these compounds and doxorubicin (Dox) were incubat ed with Wi-38 cells for 72 h after 24 h for cell attachment. MTT method was used for assaying cell viability 25. Twenty microliters of 5 mg/ml MTT (Sigma, USA) was added to each well and the plate was incubated at 37 °C for 3 h. Then MTT solution was removed, 100 µl DMSO was used and the absorbance of each well was measured with a microplate reader ( BMG LabTech, Germany) at 570 nm. The effective concentration (IC 50) and safe dose (EC100) values of the tested compounds that cause 50% and 100% cell viability were estimated by the Graphpad Instat software. […]

[2] = tested on: liver cancer cell line (HepG-2); assay: MTT anticancer activity, HepG-2; assay type: cell-based, human; conditions: Homo sapiens, HepG2; HepG-2, 72 h, MTT; mean ± SEM
Description: (§2) Anticancer effect of the above-mentioned compounds was evaluated using four human cancer cell lines. Colon cancer cells (Caco-2), myeloid leukaemia cell line (NFS-60), liver cancer cell line (HepG-2) and prostate cancer cell line (PC-3) using MTT method was used for assaying cell viability[26] (Supplementary Page S55).
(§3) All final compounds were evaluated against four human cancer cell lines namely; liver cancer (HepG2) (ATCC® HB-8065™), colon cancer (Caco-2) (ATCC® HTB-37™), leukaemia cancer (NFS-60) (ATCC® CRL-1838™), and prostate cancer (PC-3) (ATCC® CRL-1435™) using doxorubicin (Dox) as the reference drug being widely used in tumour management utilising microculture MTT assay, declared by Mosmann[26] (Table 1 in Supplementary Material, Figures 5–8). […]
(§4) MTT method was used for assaying cell viability 25. Twenty microliters of 5 mg/ml MTT (Sigma, USA) was added to each well and the plate was incubated at 37 °C for 3 h. Then MTT solution was removed, 100 µl DMSO was used and the absorbance of each well was measured with a microplate reader ( BMG LabTech, Germany) at 570 nm. The effective concentration (IC 50) and safe dose (EC100) values of the tested compounds that cause 50% and 100% cell viability were estimated by the Graphpad Instat software.
(§5) Determination of the anticancer activity
(§6) Anticancer effect of the above-mentioned compounds was evaluated using four human cancer cell lines. Colon cancer cells (Caco-2) were maintained in DMEM (Lonza, USA) containing 10% FBS while myeloid leukemia cell line (NFS-60), liver cancer cell line (HepG-2) and prostate cancer cell line (PC-3) were cultured in RPMI-1640 (Lonza, USA) supplemented with 10% FBS. All cancer cells (5x10^3 cells/well) were seeded in sterile 96-well plates. After 24h, serial concentrations of the tested compounds and Dox were incubated with four cancer cell lines for 72 h at 37 °C in 5% CO2 incubator. MTT method was done as described above. The Graphpad Instat software was used for calculating the half maximal inhibitory concentration (IC50) values. Furthermore, phase contrast inverted microscope with a digital camera (Olympus, Japan) was used for investigating […]
(§7) safest anticancer compounds. […]

[3] = tested on: Colon cancer cells (Caco-2); assay: MTT anticancer activity, Caco-2; assay type: cell-based, human; conditions: for IC50: Caco-2, 72 h, MTT, mean ± SEM; for Caco-2 SI: selectivity index, Wi-38 versus Caco-2
Description: as §2
All final compounds were evaluated against four human cancer cell lines namely; liver cancer (HepG2) (ATCC® HB-8065™), colon cancer (Caco-2) (ATCC® HTB-37™), leukaemia cancer (NFS-60) (ATCC® CRL-1838™), and prostate cancer (PC-3) (ATCC® CRL-1435™) using doxorubicin (Dox) as the reference drug being widely used in tumour management utilising microculture MTT assay, declared by Mosmann[26] (Table 1 in Supplementary Material, Figures 5–8).
as §1
Firstly, Wi-38 cell line was subcultured in DMEM medium-contained 10% fetal bovine serum (FBS), then, seeded as 5x10^3 cells per well in 96-well cell culture plate and incubated at 37 °C in 5% CO 2 incubator. Serial concentrations of these compounds and doxorubicin (Dox) were incubat ed with Wi-38 cells for 72 h after 24 h for cell attachment. MTT method was used for assaying cell viability 25. Twenty microliters of 5 mg/ml MTT (Sigma, USA) was added to each well and the plate was incubated at 37 °C for 3 h. Then MTT solution was removed, 100 µl DMSO was used and the absorbance of each well was measured with a microplate reader ( BMG LabTech, Germany) at 570 nm. The effective concentration (IC 50) and safe dose (EC100) values of the tested compounds that cause 50% and 100% cell viability were estimated by the Graphpad Instat software.
as §5, §6, §7

[4] = tested on: prostate cancer cell line (PC-3); assay: MTT anticancer activity, PC-3; assay type: cell-based, human; conditions: PC-3, 72 h, mean ± SEM
Description: as §2, §3, §4, §5, §6, §7

[5] = tested on: myeloid leukaemia cell line (NFS-60); assay: MTT anticancer activity, NFS-60; assay type: cell-based; conditions: NFS-60, 72 h, MTT; mean ± SEM
Description: as §2, §3, §4, §5, §6, §7

IC50 [2] [nM] | IC50 ([3]; Homo sapiens) [nM] | IC50 ([4]; Homo sapiens, 72 h) [nM] | IC50 [5] [nM] | melting point [°C] | IC50 [3] [nM] | IC50 [4] [nM] | SMILES | EC50 [1] [nM] | Wi-38 EC100 [1] [µM] | Caco-2 SI [3]
74 ± 2 | 82.9 ± 3 | 70.9 ± 0.1 | 78.1 ± 7 | 230 to 232 | – | – | COc1ccc2nc(N3CCOCC3)c(-c3cc(-c4cccc(O)c4)nc(OCC(=O)Nc4ccc(Cl)cc4)c3C#N)cc2c1 [11h, N-(4-Chlorophenyl)-2-((3-cyano-6-(3-hydroxyphenyl)-4-(6-methoxy-2-morpholin-4-yl-quinolin-3-yl)pyridin-2-yl)oxy)acetamide] | 166 ± 3 | 0.0182 ± 0.001 | 2.002
87.6 ± 2 | 70.8 ± 3 | 135 ± 11 | 217 ± 22 | > 300 | – | – | N#Cc1c(-c2cc3ccccc3nc2N2CCCCC2)cc(-c2cccc(O)c2)nc1S [6d, 6-(3-Hydroxyphenyl)-4-(2-(piperidin-1-yl)quinolin-3-yl)-2-mercaptopyridine-3-carbonitrile] | 759 ± 25 | 0.212 ± 0.009 | 10.720
336 ± 22 | 158 ± 2 | 158 ± 26 | 126 ± 6 | 243 to 245 | – | – | N#Cc1c(-c2cc3ccccc3nc2N2CCOCC2)cc(-c2cccc(O)c2)nc1OCC(=O)Nc1ccccc1 [11a, 2-((3-Cyano-6-(3-hydroxyphenyl)-4-(2-morpholin-4-yl-quinolin-3-yl)pyridin-2-yl)oxy)-N-phenylacetamide] | 144 ± 1 | 0.0906 ± 0.012 | 0.911
108 ± 7 | 191 ± 19 | 242 ± 37 | 247 ± 16 | > 300 | – | – | N#Cc1c(-c2cc3ccccc3[nH]c2=O)cc(-c2cccc(O)c2)nc1N [15a, 2-Amino-6-(3-hydroxyphenyl)-4-(2-oxo-1,2-dihydroquinolin-3-yl)pyridine-3-carbonitrile] | 202 ± 3 | 0.0663 ± 0.003 | 1.058
34.4 ± 6 | 38.8 ± 8 | – | 31.62 ± 0.1 | > 300 | – | – | N#Cc1c(-c2cc3ccccc3nc2N2CCOCC2)cc(-c2cccc(O)c2)[nH]c1=O [5a, 6-(3-Hydroxyphenyl)-4-(morpholin-4-yl-quinolin-3-yl)-2-oxo-1,2-dihydropyridine-3-carbonitrile] | 60.3 ± 40 | 0.0192 ± 0.003 | 1.554
45.8 | < 100 | < 100 | – | 277 to 280 | 52.1 ± 2 | 59.4 ± 1 | N#Cc1c(-c2cc3cc(Cl)ccc3nc2N2CCOCC2)cc(-c2cccc(O)c2)nc1OCC(=O)Nc1ccccc1 [11d, 2-((4-(6-Chloro-2-morpholin-4-yl-quinolin-3-yl)-3-cyano-6-(3-hydroxyphenyl)pyridin-2-yl)oxy)-N-phenylacetamide] | 107 ± 1 | 0.0455 ± 0.002 | 2.054
36.3 | – | – | – | 228 to 230 | – | – | COc1ccc(NC(=O)COc2nc(-c3cccc(O)c3)cc(-c3cc4cc(Cl)ccc4nc3N3CCOCC3)c2C#N)cc1 [11f, 2-((4-(6-Chloro-2-morpholin-4-yl-quinolin-3-yl)-3-cyano-6-(3-hydroxyphenyl)pyridin-2-yl)oxy)-N-(4-methoxyphenyl)acetamide] | 181 ± 13 | 0.0347 ± 0.003 | 5.262
41.6 | – | – | – | > 300 | – | – | N#Cc1c(-c2cc3cc(Cl)ccc3nc2N2CCOCC2)cc(-c2cccc(O)c2)nc1OCC(=O)Nc1ccc(Cl)cc1 [11e, 2-((4-(6-Chloro-2-morpholin-4-yl-quinolin-3-yl)-3-cyano-6-(3-hydroxyphenyl)pyridin-2-yl)oxy)-N-(4-chlorophenyl)acetamide] | 85 ± 3 | 0.0178 ± 0.0001 | 2.733
